The source of these data is ChEMBL document CHEMBL4819090, “Discovery of a new series of PI3K-δ inhibitors from Virtual Screening” (Bioorg Med Chem Lett, 2021).

The structures appear in SMILES notation.

For data set [1], the target named is Phosphatidylinositol 4,5-bisphosphate 3-kinase catalytic subunit gamma isoform (Homo sapiens, UniProt P48736). Briefly: Inhibition of PI3Kgamma (unknown origin) by HTRF assay. In general terms: Time-resolved FRET reads energy transfer from a long-lived donor to a nearby acceptor.
The target in data set [2] is Phosphatidylinositol 4,5-bisphosphate 3-kinase catalytic subunit alpha isoform (Homo sapiens, UniProt P42336). The data set can be described thus: Inhibition of PI3Kalpha (unknown origin) by HTRF assay.
Data set [3] concerns the target Phosphatidylinositol 4,5-bisphosphate 3-kinase catalytic subunit beta isoform (Homo sapiens, UniProt P42338). Briefly: Inhibition of PI3Kbeta (unknown origin) by HTRF assay.
Data set [4] in a line: Volume of distribution in Wistar Han rat at 2 mg/kg, iv. The data set is classed as ADME, organism-based. Conditions: in vivo.
Data set [5] in a line: Clearance in Wistar Han rat at 2 mg/kg, iv. Type of data set: ADME, organism-based. Conditions: in vivo.
Data set [6] can be described thus: Half life in Wistar Han rat at 2 mg/kg, iv. Type of data set: ADME, organism-based. Conditions: in vivo.

Sequence of Phosphatidylinositol 4,5-bisphosphate 3-kinase catalytic subunit gamma isoform (P48736 whole entry, canonical isoform): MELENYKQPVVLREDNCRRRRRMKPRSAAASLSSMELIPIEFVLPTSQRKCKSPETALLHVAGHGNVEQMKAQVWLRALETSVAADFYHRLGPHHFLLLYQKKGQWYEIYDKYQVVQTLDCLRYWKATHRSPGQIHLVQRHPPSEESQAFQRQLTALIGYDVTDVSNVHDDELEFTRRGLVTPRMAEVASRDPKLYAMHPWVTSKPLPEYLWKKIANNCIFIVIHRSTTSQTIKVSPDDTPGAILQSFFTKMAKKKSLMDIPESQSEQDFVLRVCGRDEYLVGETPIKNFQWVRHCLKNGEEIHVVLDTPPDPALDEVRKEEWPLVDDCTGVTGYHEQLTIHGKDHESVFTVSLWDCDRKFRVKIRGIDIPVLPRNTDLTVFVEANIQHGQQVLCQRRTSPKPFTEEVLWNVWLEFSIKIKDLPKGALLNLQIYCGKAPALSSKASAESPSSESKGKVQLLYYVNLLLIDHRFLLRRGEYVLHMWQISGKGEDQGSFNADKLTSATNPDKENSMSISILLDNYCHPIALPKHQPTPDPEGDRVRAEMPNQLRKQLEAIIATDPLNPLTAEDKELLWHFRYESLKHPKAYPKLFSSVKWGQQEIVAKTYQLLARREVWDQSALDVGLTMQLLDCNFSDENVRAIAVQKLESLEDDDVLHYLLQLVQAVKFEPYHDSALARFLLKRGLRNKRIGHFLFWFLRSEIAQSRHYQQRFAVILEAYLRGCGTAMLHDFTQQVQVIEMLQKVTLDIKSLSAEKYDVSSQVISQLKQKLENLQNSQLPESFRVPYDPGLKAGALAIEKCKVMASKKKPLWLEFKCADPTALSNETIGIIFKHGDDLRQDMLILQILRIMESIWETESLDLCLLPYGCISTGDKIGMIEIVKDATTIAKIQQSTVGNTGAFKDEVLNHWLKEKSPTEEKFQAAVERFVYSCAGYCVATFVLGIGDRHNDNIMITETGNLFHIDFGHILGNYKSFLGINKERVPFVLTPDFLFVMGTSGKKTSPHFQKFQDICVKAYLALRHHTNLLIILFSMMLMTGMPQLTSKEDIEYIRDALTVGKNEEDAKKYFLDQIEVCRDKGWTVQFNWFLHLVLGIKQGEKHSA
Sequence of Phosphatidylinositol 4,5-bisphosphate 3-kinase catalytic subunit beta isoform (P42338 whole entry, canonical isoform): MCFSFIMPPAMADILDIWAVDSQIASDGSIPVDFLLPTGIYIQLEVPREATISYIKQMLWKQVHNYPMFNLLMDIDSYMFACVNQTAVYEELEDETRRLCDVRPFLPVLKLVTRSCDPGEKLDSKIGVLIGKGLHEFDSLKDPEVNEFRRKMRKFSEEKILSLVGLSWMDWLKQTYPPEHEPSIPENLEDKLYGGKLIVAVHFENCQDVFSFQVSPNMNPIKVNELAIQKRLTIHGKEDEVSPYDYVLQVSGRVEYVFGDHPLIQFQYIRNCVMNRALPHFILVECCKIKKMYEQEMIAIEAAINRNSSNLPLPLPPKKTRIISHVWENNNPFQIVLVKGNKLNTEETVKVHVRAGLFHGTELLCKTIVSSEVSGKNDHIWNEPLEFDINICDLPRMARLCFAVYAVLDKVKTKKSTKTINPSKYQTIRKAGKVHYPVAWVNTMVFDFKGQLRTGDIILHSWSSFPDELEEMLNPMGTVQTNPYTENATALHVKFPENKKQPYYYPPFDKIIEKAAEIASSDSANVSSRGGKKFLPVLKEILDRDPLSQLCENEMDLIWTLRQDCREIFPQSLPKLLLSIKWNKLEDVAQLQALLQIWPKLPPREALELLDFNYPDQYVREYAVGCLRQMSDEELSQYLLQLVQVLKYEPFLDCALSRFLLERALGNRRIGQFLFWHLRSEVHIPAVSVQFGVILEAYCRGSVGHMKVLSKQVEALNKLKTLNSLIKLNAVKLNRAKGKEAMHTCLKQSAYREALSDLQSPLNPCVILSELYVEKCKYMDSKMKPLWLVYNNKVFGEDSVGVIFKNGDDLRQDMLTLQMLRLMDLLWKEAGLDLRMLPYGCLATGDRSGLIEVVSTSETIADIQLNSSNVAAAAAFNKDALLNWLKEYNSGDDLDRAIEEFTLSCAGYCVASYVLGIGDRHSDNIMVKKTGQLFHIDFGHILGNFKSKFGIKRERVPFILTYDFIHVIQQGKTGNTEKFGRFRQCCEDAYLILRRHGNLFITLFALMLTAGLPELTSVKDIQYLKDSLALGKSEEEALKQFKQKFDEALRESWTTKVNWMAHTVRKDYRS
Sequence of Phosphatidylinositol 4,5-bisphosphate 3-kinase catalytic subunit alpha isoform (P42336 whole entry, canonical isoform): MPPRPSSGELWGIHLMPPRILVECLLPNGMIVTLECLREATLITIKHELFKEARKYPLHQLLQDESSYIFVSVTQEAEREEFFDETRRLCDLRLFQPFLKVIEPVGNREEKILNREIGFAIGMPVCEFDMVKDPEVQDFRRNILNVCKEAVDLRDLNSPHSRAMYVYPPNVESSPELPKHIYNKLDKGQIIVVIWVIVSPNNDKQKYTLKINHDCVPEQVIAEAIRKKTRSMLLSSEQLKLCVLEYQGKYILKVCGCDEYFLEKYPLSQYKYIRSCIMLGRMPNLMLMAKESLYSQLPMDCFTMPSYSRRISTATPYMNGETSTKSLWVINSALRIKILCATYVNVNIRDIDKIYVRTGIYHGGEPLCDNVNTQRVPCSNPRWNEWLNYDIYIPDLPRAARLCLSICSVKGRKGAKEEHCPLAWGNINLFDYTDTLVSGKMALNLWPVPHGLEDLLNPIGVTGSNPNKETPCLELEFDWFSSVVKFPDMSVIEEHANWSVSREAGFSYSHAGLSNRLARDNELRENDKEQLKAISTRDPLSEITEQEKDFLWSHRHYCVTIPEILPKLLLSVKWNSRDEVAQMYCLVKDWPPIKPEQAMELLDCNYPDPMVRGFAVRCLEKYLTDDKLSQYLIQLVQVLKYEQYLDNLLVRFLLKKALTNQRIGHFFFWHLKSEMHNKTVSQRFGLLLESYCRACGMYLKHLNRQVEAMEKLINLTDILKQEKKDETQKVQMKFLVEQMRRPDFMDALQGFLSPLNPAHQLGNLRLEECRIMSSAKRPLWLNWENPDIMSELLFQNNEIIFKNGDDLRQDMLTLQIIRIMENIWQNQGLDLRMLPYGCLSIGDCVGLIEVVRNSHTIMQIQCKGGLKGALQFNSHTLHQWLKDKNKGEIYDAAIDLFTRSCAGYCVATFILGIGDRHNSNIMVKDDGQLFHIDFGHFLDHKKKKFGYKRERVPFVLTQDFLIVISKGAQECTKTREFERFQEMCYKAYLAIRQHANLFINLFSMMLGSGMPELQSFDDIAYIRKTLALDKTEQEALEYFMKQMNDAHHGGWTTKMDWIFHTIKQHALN

As to `O=C1NCc2c1cc(O[C@@H]1CCN(C(=O)C3CCOCC3)C1)cc2-c1cc(O)cc(F)c1`, half-maximal inhibition in data set [1] (IC50) was put at 3.13 µM.

The compound `O=C1NCc2c1cc(NCCCc1ccccc1)cc2-c1cc(O)cc(F)c1` came in with an IC50 in data set [1] of 2.02 µM. In the case of `O=C1NCc2c1cc(OC1CN(C(=O)C3CC3)C1)cc2-c1cnc(Cl)c(OC(F)F)c1`, the IC50 in data set [1] was > 10 µM. Consider `Cn1ncc2cc(-c3cc(OC4CN(C(=O)C5CC5)C4)cc4c3CNC4=O)cnc21`, for which the IC50 in data set [1] is > 10 µM. Regarding `O=C1NCc2c1cc(NCCCN1CCOCC1)cc2-c1cccc(O)c1`, the IC50 in data set [2] is 25 µM; in data set [1], > 50 µM; in data set [3], 5.15 µM. In turn, `O=C1NCc2c1cc(O[C@@H]1CCN(C(=O)C3CC3)C1)cc2-c1cc(O)cc(F)c1` showed a half-maximal inhibitory concentration (IC50) in data set [1] of 1.8 µM. Still for that read-out and setting: then `O=C1NCc2c1cc(NCCCc1ccccc1)cc2-c1cccc(O)c1`, with 4.33 µM; and `O=C1NCc2c1cc(-c1cccc(F)c1)cc2-c1cc(O)cc(F)c1`, with > 10 µM.

Consider `O=C1NCc2c1cc(OC1CN(C(=O)C3CC3)C1)cc2-c1ccc(OC(F)F)nc1`, for which the Vd in data set [4] was 1.4 L/kg. This compound also yielded a clearance in data set [5] of 6.3 mL/min/kg. This compound also had a half-life in data set [6] of 3.7 h. In addition, the IC50 in data set [1] is > 10 µM. Take `O=C1NCc2c1cc(O[C@@H]1CCN(C(=O)C3CC3)C1)cc2-c1cncc(O)c1`: the concentration for half-maximal inhibition (IC50) in data set [1] amounted to 3.06 µM. This counts as single-digit micromolar. For the compound `O=C1NCc2c1cccc2-c1cc(O)cc(F)c1`, the half-maximal inhibitory concentration (IC50) in data set [1] is > 10 µM.

In data set [1], `O=C1NCc2c1cc(O[C@@H]1CCN(C(=O)C3CC(F)(F)C3)C1)cc2-c1cc(O)cc(F)c1` had a 50% inhibitory concentration (IC50) of 1.35 µM. With `CNc1ncc(-c2cc(OC3CN(C(=O)C4C[C@H]4C)C3)cc3c2CNC3=O)cc1C(F)(F)F` (stereo partly drawn), the concentration for half-maximal inhibition (IC50) in data set [1] is > 10 µM.

`Cc1ncc(-c2cc(O[C@@H]3CCN(C(=O)C4CC4)C3)cc3c2CNC3=O)cc1NS(C)(=O)=O` showed a 50% inhibitory concentration (IC50) in data set [1] of 3.01 µM. This counts as single-digit micromolar.

On to `Nc1ncc(-c2cc(OC3CN(C(=O)C4CC4)C3)cc3c2CNC3=O)cc1C(F)(F)F`, for which the half-inhibitory concentration (IC50) in data set [1] is > 10 µM. Turning to `COc1ccc(-c2cc(O[C@@H]3CCN(C(=O)C4CC4)C3)cc3c2CNC3=O)cn1`, it took 4.74 µM to reach half-maximal inhibition in data set [1] (IC50). In other words, the single-digit micromolar range. Same read-out and setting: the figure for `C[C@@H]1CN(Cc2nnc(-c3cc4c(c(-c5cc(O)cc(F)c5)c3)CNC4=O)o2)C[C@H](C)O1` is 7.39 µM; for `O=C1NCc2c1cc(O[C@@H]1CCN(C(=O)C3CC3)C1)cc2-c1cnc(F)c(O)c1` it is 1.09 µM.

For orientation: IC50 means the point on the concentration scale where inhibition reaches its midpoint. High values mean lower potency, low ones higher potency. The term Vd denotes the apparent volume that relates the amount in the body to the concentration in plasma or blood. A lower Vd goes with confinement near the circulation. By clearance is commonly meant the rate of elimination divided by the concentration. Low values mean a low capacity for elimination, high ones a high capacity for elimination. A word on the half-life: it is how long it takes for the measured level to halve. A low value points to fast loss.
